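Values below derive from 48-hour exposures of cells grown in 96-well plates, with endpoints linearly interpolated between the two concentrations bracketing the appropriate inhibition level. GI50 marks 50% less growth.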 Activity calls are given as the source filed them. No stated cut-off is given here; in the data, active = GI50 up to about 1.1 µM and inactive = higher.
Legend:
Assay in all cases: DTP human tumour cell line panel, 48 h
EKVX = test system: EKVX
A498 = test system: A498
RPMI-8226 = test system: RPMI-8226
SNB-19 = test system: SNB-19
OVCAR-5 = test system: OVCAR-5
MDA-MB-435 = test system: MDA-MB-435
KM12 = test system: KM12
HOP-92 = test system: HOP-92
LOX IMVI = test system: LOX IMVI
HOP-62 = test system: HOP-62
786-0 = test system: 786-0
SNB-75 = test system: SNB-75
SK-MEL-5 = test system: SK-MEL-5
OVCAR-8 = test system: OVCAR-8
HCT-116 = test system: HCT-116
MDA-N = test system: MDA-N
DU-145 = test system: DU-145
SK-OV-3 = test system: SK-OV-3
SW-620 = test system: SW-620
NCI/ADR-RES = test system: NCI/ADR-RES

Compound | GI50 (EKVX) | GI50 (A498) | GI50 (RPMI-8226) | GI50 (SNB-19) | GI50 (OVCAR-5) | GI50 (MDA-MB-435) | GI50 (KM12) | GI50 (HOP-92) | GI50 (LOX IMVI) | GI50 (HOP-62) | GI50 (786-0) | GI50 (SNB-75) | GI50 (SK-MEL-5) | GI50 (OVCAR-8) | GI50 (HCT-116) | GI50 (MDA-N) | GI50 (DU-145) | GI50 (SK-OV-3) | GI50 (SW-620) | GI50 (NCI/ADR-RES)
Nc1ccc(-c2nc3ccccc3s2)cc1Cl | 25.2 µM (inactive) | 0.223 µM (active) | 36.1 µM (inactive) | > 70.8 µM (inactive) | 0.0259 µM (active) | > 100 µM (inactive) | 40.3 µM (inactive) | > 44.5 µM (inactive) | 46.8 µM (inactive) | 18.8 µM (inactive) | 74 µM (inactive) | 16.6 µM (inactive) | > 87.3 µM (inactive) | > 100 µM (inactive) | > 100 µM (inactive) | > 100 µM (inactive) | > 100 µM (inactive) | > 73.8 µM (inactive) | > 100 µM (inactive) | > 100 µM (inactive)
CC(C)(CN1CCCCC1)C(/C=C/c1ccc(Cl)cc1)=N\NC(=O)N/N=C(/C=C/c1ccc(Cl)cc1)C(C)(C)CN1CCCCC1 | 5.4 µM (inactive) | 7.69 µM (inactive) | 5.98 µM (inactive) | 3.4 µM (inactive) | 3.95 µM (inactive) | 3.55 µM (inactive) | 3.24 µM (inactive) | 2.38 µM (inactive) | 2.3 µM (inactive) | 4.42 µM (inactive) | 2.76 µM (inactive) | 1.85 µM (inactive) | 5.14 µM (inactive) | 4.38 µM (inactive) | 3.19 µM (inactive) | 3.34 µM (inactive) | 6.01 µM (inactive) | 6.68 µM (inactive) | 2.72 µM (inactive) | 3.86 µM (inactive)
Nc1ccc(Sc2c3ccccc3nc3ccccc23)cc1 | 23 µM (inactive) | 68.5 µM (inactive) | 2.82 µM (inactive) | 22.1 µM (inactive) | 21.8 µM (inactive) | 17.2 µM (inactive) | 18.6 µM (inactive) | 10.1 µM (inactive) | 5.62 µM (inactive) | 29.7 µM (inactive) | 5.48 µM (inactive) | 17.1 µM (inactive) | 16.6 µM (inactive) | 13.8 µM (inactive) | 10.8 µM (inactive) | 12.2 µM (inactive) | 13.7 µM (inactive) | 22.3 µM (inactive) | 10.4 µM (inactive) | 7.73 µM (inactive)
C[Si](C)(C)C#CCO[Si](C)(C)C | 97.9 µM (inactive) | > 100 µM (inactive) | 21 µM (inactive) | > 100 µM (inactive) | > 100 µM (inactive) | > 61.4 µM (inactive) | > 50.4 µM (inactive) | 18.2 µM (inactive) | 7.03 µM (inactive) | > 100 µM (inactive) | 32.7 µM (inactive) | 47.2 µM (inactive) | > 100 µM (inactive) | 36.3 µM (inactive) | 65 µM (inactive) | 49.8 µM (inactive) | > 100 µM (inactive) | > 100 µM (inactive) | 37.8 µM (inactive) | > 100 µM (inactive)
O/N=C/[C@H]1COC2(CCCCC2)O1 | > 100 µM (inactive) | > 100 µM (inactive) | > 100 µM (inactive) | > 100 µM (inactive) | > 100 µM (inactive) | > 100 µM (inactive) | > 100 µM (inactive) | 31.6 µM (inactive) | > 100 µM (inactive) | > 100 µM (inactive) | > 100 µM (inactive) | > 100 µM (inactive) | > 100 µM (inactive) | > 100 µM (inactive) | > 100 µM (inactive) | > 100 µM (inactive) | > 100 µM (inactive) | > 100 µM (inactive) | > 100 µM (inactive) | > 100 µM (inactive)
O=C(C=P(c1ccccc1)(c1ccccc1)c1ccccc1)c1ccc(-c2cccs2)cc1 | 2.61 µM (inactive) | 0.9 µM (active) | 2.25 µM (inactive) | 2.96 µM (inactive) | 5 µM (inactive) | 3.08 µM (inactive) | 4.13 µM (inactive) | 3.48 µM (inactive) | 4.57 µM (inactive) | 6.64 µM (inactive) | 4.75 µM (inactive) | 3.56 µM (inactive) | 2.17 µM (inactive) | 4.86 µM (inactive) | 3.74 µM (inactive) | 3.22 µM (inactive) | 8.73 µM (inactive) | 5.66 µM (inactive) | 4.33 µM (inactive) | 4.48 µM (inactive)
O=C1O[C@]2(c3ccccc3)C(c3ccccc3)=C[C@]2(C(=O)c2ccccc2)C1=O | 34 µM (inactive) | 35.5 µM (inactive) | 25.8 µM (inactive) | 36.6 µM (inactive) | > 100 µM (inactive) | 37.2 µM (inactive) | 35.8 µM (inactive) | 24 µM (inactive) | 28.9 µM (inactive) | 34 µM (inactive) | 26.2 µM (inactive) | 3.92 µM (inactive) | 31.8 µM (inactive) | 29.8 µM (inactive) | 28.6 µM (inactive) | 31.9 µM (inactive) | 0.292 µM (active) | 42.4 µM (inactive) | 19.1 µM (inactive) | 31.6 µM (inactive)
Nc1nc(Cl)cc(NCC2(O)CC2)n1 | > 100 µM (inactive) | > 100 µM (inactive) | > 100 µM (inactive) | > 100 µM (inactive) | > 100 µM (inactive) | > 100 µM (inactive) | > 100 µM (inactive) | > 100 µM (inactive) | > 100 µM (inactive) | > 100 µM (inactive) | > 100 µM (inactive) | > 100 µM (inactive) | > 100 µM (inactive) | > 100 µM (inactive) | > 100 µM (inactive) | > 100 µM (inactive) | > 100 µM (inactive) | > 100 µM (inactive) | > 100 µM (inactive) | > 100 µM (inactive)
O=C1C=CC2(C=C1)O[C@H](CCc1ccccc1)[C@@H](CCc1ccccc1)O2 | 24 µM (inactive) | > 100 µM (inactive) | 82 µM (inactive) | > 100 µM (inactive) | > 100 µM (inactive) | 27.9 µM (inactive) | > 100 µM (inactive) | 21.9 µM (inactive) | 12.3 µM (inactive) | 61.2 µM (inactive) | > 100 µM (inactive) | > 100 µM (inactive) | > 100 µM (inactive) | > 100 µM (inactive) | 99.3 µM (inactive) | > 100 µM (inactive) | > 100 µM (inactive) | > 100 µM (inactive) | > 100 µM (inactive) | > 100 µM (inactive)
CN(C)/C=N/c1ccc2[nH]c3ccccc3c2c1 | 65 µM (inactive) | 20.9 µM (inactive) | 22.6 µM (inactive) | > 100 µM (inactive) | 28.4 µM (inactive) | 18 µM (inactive) | – | 15.8 µM (inactive) | 15.7 µM (inactive) | 23.2 µM (inactive) | 25.1 µM (inactive) | 37.7 µM (inactive) | 16.7 µM (inactive) | 37.7 µM (inactive) | 34.6 µM (inactive) | 18.2 µM (inactive) | > 100 µM (inactive) | 61.7 µM (inactive) | – | 53.7 µM (inactive)
CCCCCc1cc2cc3c(c(O)c2c(=O)[nH]1)C1(CC3)C(=O)c2c(O)c3c(c(O)c2C1=O)C(=O)C(OC)=CC3=O (configuration not stated) | 0.916 µM (active) | 2.31 µM (inactive) | 0.336 µM (active) | 1.08 µM (active) | 2.98 µM (inactive) | 1.49 µM (inactive) | 1.26 µM (inactive) | 0.263 µM (active) | 0.662 µM (active) | 3.61 µM (inactive) | 0.7 µM (active) | 1.58 µM (inactive) | 0.64 µM (active) | 0.622 µM (active) | 0.433 µM (active) | 1.3 µM (inactive) | 1.05 µM (active) | 2.61 µM (inactive) | 0.442 µM (active) | 1.17 µM (inactive)
CC(=O)/N=C1/N(/C=C2\C(=O)Oc3ccccc3C2=O)C(=O)/C(=C/c2cccc(Cl)c2Cl)N1C | 28.9 µM (inactive) | 4.68 µM (inactive) | 12.4 µM (inactive) | – | 30.3 µM (inactive) | 25.6 µM (inactive) | 26.7 µM (inactive) | 0.0333 µM (active) | 24.6 µM (inactive) | 19.7 µM (inactive) | 34.3 µM (inactive) | 17.3 µM (inactive) | 12.9 µM (inactive) | 19.7 µM (inactive) | 29.4 µM (inactive) | 42.8 µM (inactive) | 41.8 µM (inactive) | 17.2 µM (inactive) | 29.9 µM (inactive) | 22.5 µM (inactive)
CC(C)(C)c1nc2c(o1)C(=O)c1ccccc1C2=O | 2.68 µM (inactive) | 6.21 µM (inactive) | 1.93 µM (inactive) | 5.19 µM (inactive) | 2.38 µM (inactive) | 0.185 µM (active) | 2.75 µM (inactive) | 3.05 µM (inactive) | 0.394 µM (active) | 3.37 µM (inactive) | 2.75 µM (inactive) | 2.96 µM (inactive) | 0.437 µM (active) | 0.92 µM (active) | 0.838 µM (active) | 0.199 µM (active) | 1.1 µM (active) | 4.98 µM (inactive) | 1.58 µM (inactive) | 0.447 µM (active)
CCc1nc(N)nc(N)c1-c1ccc(N2CCNCC2)cc1 | > 83 µM (inactive) | > 97.1 µM (inactive) | > 56.1 µM (inactive) | 47.6 µM (inactive) | > 100 µM (inactive) | 59.8 µM (inactive) | > 95.9 µM (inactive) | > 100 µM (inactive) | 39.7 µM (inactive) | 55.8 µM (inactive) | 60.5 µM (inactive) | > 100 µM (inactive) | 19.8 µM (inactive) | 66.5 µM (inactive) | 35.2 µM (inactive) | 64.7 µM (inactive) | 62.7 µM (inactive) | > 100 µM (inactive) | 56.5 µM (inactive) | > 100 µM (inactive)

Source: ChEMBL document CHEMBL1201862, “PubChem BioAssay data set” (2004)
